Laboratory results published in patent publication US8445478B2 (Sanofi, priority 2007, dated 2013).
Values belong to the compound of their own block, whether it stands above or below them.

Key:
cannabinoid CB receptor = cannabinoid CB receptor (Mus musculus, UniProt P47746); experiment: hypothermia induced by cannabinoid CB receptor agonist CP55,940 in mice; details: 3 mg/kg po; male CD1 mice; CP55,940 1.25 mg/kg i.p.; rectal temperature at 90 minutes
Protocol: At time 0 min, the rectal temperature of male CD1 mice is measured before injection of the test product. At 30 minutes, a further measurement of the rectal temperature of the mice is taken and the racemic CP55,940 agonist ORS, 3RS, 4RS-3-[hydroxy-2-(1,1-dimethylheptyl)phenyl]-4-(3-hydroxypropyl)cyclohexan-1-ol) (1.25 mg/kg i.p. in 10% cremophor) is administered. At 90 minutes, the rectal temperature is again taken. The results are expressed as % relative to the control batch injected with the CP55,940 (minimum temperature) and to the carrier batch without CP55,940 treatment (maximum temperature).

human CB1 receptor = human CB1 receptor (Homo sapiens, UniProt P21554); experiment: cell-based
Chain of human CB1 receptor (P21554 whole entry): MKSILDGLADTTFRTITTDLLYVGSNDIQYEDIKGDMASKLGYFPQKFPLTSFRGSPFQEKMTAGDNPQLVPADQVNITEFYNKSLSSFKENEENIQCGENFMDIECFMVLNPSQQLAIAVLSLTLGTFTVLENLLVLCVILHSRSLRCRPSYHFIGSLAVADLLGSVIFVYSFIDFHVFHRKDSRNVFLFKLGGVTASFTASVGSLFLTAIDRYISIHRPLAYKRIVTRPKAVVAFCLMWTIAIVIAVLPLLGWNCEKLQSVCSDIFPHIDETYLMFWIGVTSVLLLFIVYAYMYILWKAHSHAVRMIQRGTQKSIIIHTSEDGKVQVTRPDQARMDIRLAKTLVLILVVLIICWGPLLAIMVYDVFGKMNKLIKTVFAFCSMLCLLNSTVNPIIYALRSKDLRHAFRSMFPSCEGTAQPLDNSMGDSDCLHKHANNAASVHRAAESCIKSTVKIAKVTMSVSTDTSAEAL
Protocol: The compounds according to the invention were the subject of pharmacological tests for determining the activity with respect to human cannabinoid CB1-type receptors. The efficacy of the compounds of formula (I) was determined in a functional test which measures cannabinoid CB1 receptor activity (intracellular cyclic AMP test). The test for detecting intracellular cyclic AMP in U373MG cells naturally expressing the human CB1 receptor was carried out as described in the reference: Bouaboula et al., 1995, J. Biol. Chem. 270:13973-13980. The HTRF cAMP Dynamic Kit from CisBio was used to quantify the intracellular cyclic AMP.

[1] = biological target: T1, cannabinoid CB1-type receptor (Mus musculus, UniProt P47746); experiment: inhibition of gastrointestinal transit induced by racemic CP55,940 in mice; assay type: in vivo; details: 1 mg/kg per os; 3 hours after administration of the product; male CD1 mice; CP55,940 0.15 mg/kg ip
T1 construct: male CD1 mice received the test product per os; from tissue; host or cells: whole animal, male CD1 mice
T1 sequence (P47746 whole entry): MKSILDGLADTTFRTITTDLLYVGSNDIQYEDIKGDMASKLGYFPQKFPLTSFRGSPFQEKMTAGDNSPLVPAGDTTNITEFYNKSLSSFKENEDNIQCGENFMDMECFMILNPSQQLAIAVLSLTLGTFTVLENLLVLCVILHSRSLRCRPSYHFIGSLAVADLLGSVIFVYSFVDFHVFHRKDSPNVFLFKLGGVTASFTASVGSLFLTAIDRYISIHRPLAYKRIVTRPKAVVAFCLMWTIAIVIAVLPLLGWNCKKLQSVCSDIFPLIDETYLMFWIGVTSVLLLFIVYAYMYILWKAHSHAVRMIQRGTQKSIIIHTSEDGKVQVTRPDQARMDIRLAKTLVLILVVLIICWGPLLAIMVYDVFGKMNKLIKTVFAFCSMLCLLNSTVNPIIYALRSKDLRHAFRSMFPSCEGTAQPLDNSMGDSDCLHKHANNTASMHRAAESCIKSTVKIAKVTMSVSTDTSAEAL
Protocol: After a further 30 minutes, the animals received a charcoal bolus po. Thirty minutes later, the animals are sacrificed by euthanasia (CO2/O2) and the intestine is dissected. The progression of the charcoal bolus in the intestine is expressed as percentage of the total length of the intestine.

Chain of cannabinoid CB receptor (P47746 whole entry): as above

melting point: 219 to 221 °C
SMILES: C[C@@H](NC(=O)c1cc(F)cc(NS(=O)(=O)CC2CN(C(c3ccc(Cl)cc3)c3ccc(Cl)cc3)C2)c1)C(N)=O [Compound No. 4, 3-({1-[bis(4-chlorophenyl)methyl]azetidin-3-yl}methanesulphonylamino)-N—((R)-1-carbamoylethyl)-5-fluorobenzamide]

melting point: 186 °C
SMILES: NC(=O)CCCNC(=O)c1cc(F)cc(NS(=O)(=O)CC2CN(C(c3ccc(Cl)cc3)c3ccc(Cl)cc3)C2)c1 [compound 28, 3-({1-[bis(4-chlorophenyl)methyl]azetidin-3-yl}methanesulphonylamino)-N-(3-carbamoylpropyl)-5-fluorobenzamide]

percentages of inhibition of the decrease in temperature induced by the agonist (cannabinoid CB receptor): 17%
SMILES: Cc1cc(NS(=O)(=O)CC2CN(C(c3ccc(Cl)cc3)c3ccc(Cl)cc3)C2)cc(C(=O)N[C@@H](C)C(N)=O)c1 [compound 38, 3-({1-[bis(4-chlorophenyl)methyl]azetidin-3-yl}methanesulphonylamino)-N—((S)-1-carbamoylethyl)-5-methylbenzamide]

melting point: 154 to 156 °C
SMILES: NC(=O)CNC(=O)c1cc(F)cc(NS(=O)(=O)CC2CN(C(c3ccc(Cl)cc3)c3ccc(Cl)cc3)C2)c1 [Compound No. 2, 3-({1-[bis(4-chlorophenyl)methyl]azetidin-3-yl}methanesulphonylamino)-N-carbamoylmethyl-5-fluorobenzamide]

melting point: 216 °C
SMILES: CNC(=O)CNC(=O)c1cccc(NS(=O)(=O)CC2CN(C(c3ccc(Cl)cc3)c3ccc(Cl)cc3)C2)c1 [compound 15, 3-({1-[bis(4-chlorophenyl)methyl]azetidin-3-yl}methanesulphonylamino)-N-(methylcarbamoylmethyl)benzamide]

SMILES: C[C@@H](NC(=O)c1cc(F)cc(N(C2CN(C(c3ccc(Cl)cc3)c3ccc(Cl)cc3)C2)S(C)(=O)=O)c1)C(N)=O
IC50 (human CB1 receptor): 284 nM

SMILES: C[C@H](NC(=O)c1cc(N(C2CN(C(c3ccc(Cl)cc3)c3ccc(Cl)cc3)C2)S(C)(=O)=O)cc(C(F)(F)F)c1)C(=O)O [compound 68]
percentages of inhibition (gastrointestinal transit model) [1]: 7%
IC50 (human CB1 receptor): 24 nM

SMILES: CCOC(=O)[C@H](C)NC(=O)c1cc(F)cc(N(C2CN(C(c3ccc(Cl)cc3)c3ccc(Cl)cc3)C2)S(C)(=O)=O)c1 [compound 79]
IC50 (human CB1 receptor): 70 nM

melting point: 150 °C
SMILES: CNC(=O)[C@H](C)NC(=O)c1cc(F)cc(NS(=O)(=O)CC2CN(C(c3ccc(Cl)cc3)c3ccc(Cl)cc3)C2)c1 [compound 26, 3-({1-[bis(4-chlorophenyl)methyl]azetidin-3-yl}methanesulphonylamino)-5-fluoro-N—((S)-1-methylcarbamoylethyl)benzamide]

melting point: 235 °C
SMILES: C[C@@H](NC(=O)c1cccc(NS(=O)(=O)CC2CN(C(c3ccc(Cl)cc3)c3ccc(Cl)cc3)C2)c1)C(N)=O [Compound No. 5, 3-({1-[Bis(4-chlorophenyl)methyl]azetidin-3-yl}methanesulphonylamino)-N—((R)-1-carbamoylethyl)benzamide]

percentages of inhibition (gastrointestinal transit model) [1]: 74%
percentages of inhibition of the decrease in temperature induced by the agonist (cannabinoid CB receptor): 28%
SMILES: CC[C@H](NC(=O)c1cc(NS(=O)(=O)CC2CN(C(c3ccc(Cl)cc3)c3ccc(Cl)cc3)C2)cc(C(F)(F)F)c1)C(N)=O [compound 55, 3-({1-[bis(4-chlorophenyl)methyl]azetidin-3-yl}methanesulphonylamino)-N—((S)-1-carbamoylpropyl)-5-trifluoromethylbenzamide]

melting point: 190 to 192 °C
SMILES: NC(=O)CCNC(=O)c1cccc(NS(=O)(=O)CC2CN(C(c3ccc(Cl)cc3)c3ccc(Cl)cc3)C2)c1 [Compound No. 7, 3-({1-[bis(4-chlorophenyl)methyl]azetidin-3-yl}methanesulphonylamino)-N-(2-carbamoylethyl)benzamide]

SMILES: CC[C@H](NC(=O)c1ccc(F)c(N(C2CN(C(c3ccc(Cl)cc3)c3ccc(Cl)cc3)C2)S(C)(=O)=O)c1)C(N)=O [compound 36]
IC50 (human CB1 receptor): 952 nM

SMILES: C[C@H](NC(=O)c1cccc(N(C2CN(C(c3ccc(Cl)cc3)c3ccc(Cl)cc3)C2)S(C)(=O)=O)c1)C(N)=O
percentages of inhibition (gastrointestinal transit model) [1]: 39.2%
IC50 (human CB1 receptor): 43 nM
percentages of inhibition of the decrease in temperature induced by the agonist (cannabinoid CB receptor): 5%

melting point: 212 to 214 °C
SMILES: NC(=O)[C@H](CO)NC(=O)c1cc(F)cc(NS(=O)(=O)CC2CN(C(c3ccc(Cl)cc3)c3ccc(Cl)cc3)C2)c1 [compound 13, 3-({1-[bis(4-chlorophenyl)methyl]azetidin-3-yl}methanesulphonylamino)-N—((S)-1-carbamoyl-2-hydroxyethyl)-5-fluorobenzamide]

melting point: 212 to 214 °C
SMILES: CC[C@H](NC(=O)c1cc(F)cc(NS(=O)(=O)CC2CN(C(c3ccc(Cl)cc3)c3ccc(Cl)cc3)C2)c1)C(N)=O [compound 14, 3-({1-[bis(4-chlorophenyl)methyl]azetidin-3-yl}methanesulphonylamino)-N—((S)-1-carbamoylpropyl)-5-fluorobenzamide]

SMILES: C[C@H](NC(=O)c1cc(F)cc(N(C2CN(C(c3ccc(Cl)cc3)c3ccc(Cl)cc3)C2)S(C)(=O)=O)c1)C(N)=O
percentages of inhibition (gastrointestinal transit model) [1]: 49%
IC50 (human CB1 receptor): 9 nM

melting point: 171 to 173 °C
SMILES: CNC(=O)[C@H](C)NC(=O)c1cccc(NS(=O)(=O)CC2CN(C(c3ccc(Cl)cc3)c3ccc(Cl)cc3)C2)c1 [Compound No. 9, 3-({1-[bis(4-chlorophenyl)methyl]azetidin-3-yl}methanesulphonylamino)-N—((S)-1-methylcarbamoylethyl)benzamide]

melting point: 228 to 230 °C
SMILES: C[C@H](NC(=O)c1cc(F)cc(NS(=O)(=O)CC2CN(C(c3ccc(Cl)cc3)c3ccc(Cl)cc3)C2)c1)C(N)=O [Compound No. 3, 3-({1-[Bis(4-chlorophenyl)methyl]azetidin-3-yl}methanesulphonylamino)-N—((S)-1-carbamoylethyl)-5-fluorobenzamide]

melting point: 176 °C
SMILES: O=C(NCC(=O)N1CCOCC1)c1cccc(NS(=O)(=O)CC2CN(C(c3ccc(Cl)cc3)c3ccc(Cl)cc3)C2)c1 [Compound No. 8, 3-({1-[bis(4-chlorophenyl)methyl]azetidin-3-yl}methanesulphonylamino)-N-(2-morpholin-4-yl-2-oxoethyl)benzamide]

SMILES: C[C@H](NC(=O)c1cc(F)cc(N(C2CN(C(c3ccc(Br)cc3)c3ccc(Br)cc3)C2)S(C)(=O)=O)c1)C(N)=O [compound 70, 3-({1-[bis(4-bromophenyl)methyl]azetidin-3-yl}methanesulphonylamino)-N—((S)-1-carbamoylethyl)-5-fluorobenzamide]
IC50 (human CB1 receptor): 31 nM

melting point: 196 to 198 °C
SMILES: NC(=O)CNC(=O)c1cccc(NS(=O)(=O)CC2CN(C(c3ccc(Cl)cc3)c3ccc(Cl)cc3)C2)c1 [compound 16, 3-({1-[bis(4-chlorophenyl)methyl]azetidin-3-yl}methanesulphonylamino)-N-(carbamoylmethyl)benzamide]

SMILES: CC(C)[C@H](NC(=O)c1cc(N(C2CN(C(c3ccc(Cl)cc3)c3ccc(Cl)cc3)C2)S(C)(=O)=O)cc(C(F)(F)F)c1)C(N)=O [compound 56]
IC50 (human CB1 receptor): 41 nM

melting point: 229 °C
SMILES: C[C@H](NC(=O)c1cccc(NS(=O)(=O)CC2CN(C(c3ccc(Cl)cc3)c3ccc(Cl)cc3)C2)c1)C(N)=O [Compound No. 1, 3-({1-[bis(4-chlorophenyl)methyl]azetidin-3-yl}methanesulphonylamino)-N—((S)-1-carbamoylethyl)benzamide]

percentages of inhibition (gastrointestinal transit model) [1]: 78%
percentages of inhibition of the decrease in temperature induced by the agonist (cannabinoid CB receptor): 21%
SMILES: CNC(=O)[C@H](C)NC(=O)c1cc(NS(=O)(=O)CC2CN(C(c3ccc(Cl)cc3)c3ccc(Cl)cc3)C2)cc(C(F)(F)F)c1 [compound 57, 3-({1-[bis(4-chlorophenyl)methyl]azetidin-3-yl}methanesulphonylamino)-N—((S)-1-methylcarbamoylethyl)-5-trifluoromethylbenzamide]

melting point: 183 to 185 °C
SMILES: COc1cc(NS(=O)(=O)CC2CN(C(c3ccc(Cl)cc3)c3ccc(Cl)cc3)C2)cc(C(=O)N[C@@H](C)C(N)=O)c1 (hydrate or solvate) [compound 22, 3-({1-[bis(4-chlorophenyl)methyl]azetidin-3-yl}methanesulphonylamino)-N—((S)-1-carbamoylethyl)-5-methoxybenzamide]

melting point: 220 to 222 °C
SMILES: CC[C@H](NC(=O)c1cccc(NS(=O)(=O)CC2CN(C(c3ccc(Cl)cc3)c3ccc(Cl)cc3)C2)c1)C(N)=O [compound 10, 3-({1-[bis(4-chlorophenyl)methyl]azetidin-3-yl}methanesulphonylamino)-N—((S)-1-carbamoylpropyl)benzamide]
